Reference: US20090181972A1, “Novel Inhibitors of Cysteine Proteases, the Pharmaceutical Compositions Thereof and their Therapeutic Applications” (priority 2005, published 2009)

Experiments:
[1] = system: HCT116 colon cancer cells; test: HCT116 cell viability and proliferation assay (MTS); assay type: cell-based; settings: Homo sapiens, HCT-116, 72 hours incubation, mean of three independent experiments, read-out: HCT116 GI50 D3
Description: HCT116 colon cancer cells were obtained from ATCC (American Type Culture Collection), and maintained in Mc Coy's 5A medium containing 10% FBS, 3 mM glutamine and 1% penicillin/streptomycin. Cells were incubated at 37° C. in a humidified atmosphere containing 5% CO2.
(§1) Cell viability was assayed using the MTS technique in 96-well culture plates (CellTiter 96® Aqueous Non-Radioactive Cell Proliferation Assay, Promega) according to the manufacturer's instructions. MTS (3-(4,5-dimethyl-thiazol-2-yl)-5-(3-carboxymethoxyphenyl)-2-(4-sulfophenyl)-2H-tetra-zolium) is a MTT-derived tetrazolium that is reduced in metabolically active cells into a soluble, cell-permeant formazan. The amount of formazan, detected by its absorbance at 492 nm is proportional to the number of living, metabolically active cells.
(§2) 10^3 HCT116 cells were seeded per well. 24 hours later, the medium was changed and the cells treated in triplicate with the following concentrations of each compound: 10 μM-3.33 μM-1.11 μM-370 nM-123 nM-41 nM-14 nM and 5 nM. The compounds were diluted in 100% DMSO, whose final concentration on cells was kept at 0.5%.
(§3) Cells were incubated with the compounds for 72 hours, and their viability then assayed by the addition of MTS for 2 hours. Absorbance at 492 nm was measured directly from the 96-well culture plates. G150 (Growth Inhibition 50) concentrations for each compound were calculated using a sigmoidal variable slope fit (Prism 4.0, Graphpad Softwares). Values represent mean of three independent experiments.

SENP1 = target: T1, SENP1 (Homo sapiens, UniProt Q9P0U3); test: SENP1 activity assay; assay type: biochemical; settings: MBP-SENP1 1.8 nM, 200 nM SUMO-AMC; pre-incubated 30 minutes at 25° C., 60 minutes at 37° C.; sigmoidal fit
T1 construct: made in house; host or cells: E. coli BL21
T1 sequence (Q9P0U3 1-644): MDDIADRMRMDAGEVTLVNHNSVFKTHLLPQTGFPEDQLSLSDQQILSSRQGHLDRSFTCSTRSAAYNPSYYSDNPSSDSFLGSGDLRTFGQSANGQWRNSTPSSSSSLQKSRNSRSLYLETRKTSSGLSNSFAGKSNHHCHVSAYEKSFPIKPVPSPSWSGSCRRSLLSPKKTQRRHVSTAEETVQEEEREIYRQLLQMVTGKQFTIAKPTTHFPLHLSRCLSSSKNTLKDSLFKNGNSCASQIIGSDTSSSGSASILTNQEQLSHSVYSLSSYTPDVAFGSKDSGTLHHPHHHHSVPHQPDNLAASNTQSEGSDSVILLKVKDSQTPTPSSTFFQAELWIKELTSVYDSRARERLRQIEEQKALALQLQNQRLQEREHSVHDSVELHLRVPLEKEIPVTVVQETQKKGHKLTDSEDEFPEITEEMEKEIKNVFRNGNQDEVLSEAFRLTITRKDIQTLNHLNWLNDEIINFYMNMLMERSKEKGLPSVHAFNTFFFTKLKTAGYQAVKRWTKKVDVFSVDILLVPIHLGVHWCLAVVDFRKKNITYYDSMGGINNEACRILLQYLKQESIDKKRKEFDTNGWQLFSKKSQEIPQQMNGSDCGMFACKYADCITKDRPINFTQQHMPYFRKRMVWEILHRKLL
Description: The cDNA encoding SENP1 was obtained by PCR amplification from placenta mRNA. SENP1 cDNA was subcloned by PCR into a bacterial expression vector (pMAL-C2X; New England BioLabs, Inc). The sequence was ascertained by sequencing of the entire open reading frame. pMAL-C2-SENP1 was transformed into BL21 cells and grown in LB-ampicillin medium supplemented with glucose (2 g.l^−1). Fusion protein expression was induced by IPTG (0.5 mM). Bacterial cell lysates were harvested and lyzed in lysis buffer (Tris HCl 20 mM pH 7.4; 1 mM EDTA; 200 mM NaCl; 0.5% Triton X-100; 10 % glycerol; Protease Inhibitor Cocktail) followed by sonication. Proteins were affinity purified on amylose affinity resin (New England BioLabs, Inc). Bound materials were extensively washed in wash buffer (20 mM Tris HCl pH 7.4; 200 mM NaCl; 1 mM EDTA; 0.5% Triton X-100; 10% glycerol) and eluted from the resin in 10 mM maltose-containing wash buffer. Proteins were dialyzed in dialysis buffer (Tris HCl pH 7.6 20 mM; NaCl 200 mM; DTT 1 mM; EDTA 1 mM; 10% Glycerol). Proteins purifications were analyzed on 4-12% NuPAGE (Invitrogen).
MBP-SENP1 was diluted in SENP1 buffer (50 mM Tris HCl; 0.5 mM EDTA; 5 mM DTT; 0.01 % Triton X-100; Bovine Serum Albumin 0.05 mg.ml^−1 pH 7.6). Compounds stocks (100 mM) were stored at −20° C. in DMSO. Compounds were tested at the following final concentrations: 100 μM; 33.3 μM; 11.1 μM; 3.7 μM; 1.23 μM; 412 nM; 137 nM; 45.7 nM; 15.2 nM; 5 nM.
Reactions were performed as duplicates in Black LJL 96 well plates (HE microplates; Molecular Devices; 20 μl final reaction volume). The substrate concentration for SENP1 was 200 nM SUMO-AMC (Chem. Biol., 2003, 10, p. 837-846) (Boston Biochem). The concentration of the enzyme (SENP1) in specificity assays was 1.8 nM. The concentrations were determined in order to perform specificity assays under initial velocities at fixed substrate concentration. Compounds were pre-incubated with enzymes for 30 minutes at 25° C. Reactions were initiated by addition of substrate to the plates containing the enzymes (+/− compounds) diluted in assay buffer. Reactions were incubated for 60 minutes at 37° C. Reactions were stopped by adding acetic acid (100 mM final). Readings were performed on a Pherastar Fluorescent Reader (BMG). λ Emission 380 nm; λ Excitation=460 nm. Data (mean values +/− standard deviation) were analyzed as % of control (no compound) and plotted as percentage versus the Log of the compound concentration using GraphPad (Prism). Data were fitted to a sigmoidal model (variable slope).

[2] = system: PC-3 prostate cancer cells; test: PC3 cell viability and proliferation assay (MTS); assay type: cell-based; settings: Homo sapiens, PC-3, 72 hours incubation, mean of three independent experiments, read-out: PC3 GI50 D3
Description: PC-3 prostate cancer cells were obtained from ATCC, and maintained in F-12K medium containing 7% FBS and 1% penicillin/streptomycin. Cells were incubated at 37° C. in a humidified atmosphere containing 5% CO2.
as §1, with “(3-(4,5-dimethyl-thiazol-2-yl)-5-(3-carboxymethoxyphenyl)-2-(4-sulfophenyl)-2H-tetrazolium)” for “(3-(4,5-dimethyl-thiazol-2-yl)-5-(3-carboxymethoxyphenyl)-2-(4-sulfophenyl)-2H-tetra-zolium)”
as §2, with “2×10^3 PC3” for “10^3 HCT116”
as §3, with “GI50” for “G150”

Caspase 3 = target: T2, Caspase 3 (Homo sapiens, UniProt P42574); test: Caspase 3 activity assay; assay type: biochemical; settings: 500 nM Ac-DEVD-AMC, 3.2 nM enzyme; pre-incubated 30 minutes at 25° C., 60 minutes at 37° C.; sigmoidal fit
T2 sequence (P42574 29-175 limits assumed): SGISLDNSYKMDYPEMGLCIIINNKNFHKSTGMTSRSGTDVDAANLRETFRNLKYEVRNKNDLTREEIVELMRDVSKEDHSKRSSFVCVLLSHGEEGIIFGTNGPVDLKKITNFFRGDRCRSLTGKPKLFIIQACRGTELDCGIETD
T2 sequence (P42574 176-277 limits assumed): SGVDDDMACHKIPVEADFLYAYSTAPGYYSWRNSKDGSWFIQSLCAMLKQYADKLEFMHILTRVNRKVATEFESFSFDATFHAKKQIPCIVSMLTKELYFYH
Description: Caspase 3 was diluted in Caspase 3 buffer (100 mM Hepes pH 7.5; 10% sucrose; 0.1% CHAPS). Compounds stocks (100 mM) were stored at −20° C. in DMSO. Compounds were tested at the following final concentrations: 100 μM; 33.3 μM; 11.1 μM; 3.7 μM; 1.23 μM; 412 nM; 137 nM; 45.7 nM; 15.2 nM; 5 nM. Reactions were performed as duplicates in Black LJL 96 well plates (HE microplates; Molecular Devices; 20 μl final reaction volume). The substrate concentration for caspase 3 specificity assay was 500 nM (Ac-DEVD-AMC; Promega). The concentration of the enzyme (Caspase 3) in specificity assays was 3.2 nM. The concentrations were determined in order to perform specificity assays under initial velocities at fixed substrate concentration. Compounds were pre-incubated with enzymes for 30 minutes at 25° C. Reactions were initiated by addition of substrate to the plates containing the enzymes (+/− compounds) diluted in assay buffer. Reactions were incubated for 60 minutes at 37° C. Reactions were stopped by adding acetic acid (100 mM final). Readings were performed on a Pherastar Fluorescent Reader (BMG). δ Emission 380 nm; δ Excitation=460 nm. Data (mean values +/− standard deviation) were analyzed as % of control (no compound) and plotted as percentage versus the Log of the compound concentration using GraphPad (Prism). Data were fitted to a sigmoidal model (variable slope).

Row | Compound | GI50 [1] [nM] | IC50 (SENP1) [nM] | GI50 [2] [nM] | IC50 (Caspase 3) [nM]
1 | Cc1nnc2nc3c(nn12)C(=O)c1ccccc1-3 [Example 1b/A, 1-Methyl-2,3,4,10,10a-pentaaza-cyclopenta[b]fluoren-9-one] | 1300 | > 100000 | 7090 | –
2 | Nc1nnc2nc3c(nn12)-c1ccccc1C3=O [Example 1c/B, 3-Amino-1,2,3a,4,10-pentaaza-cyclopenta[b]fluoren-9-one] | 981 | – | 3170 | 212
3 | O=C1c2ccccc2-c2nc3nnc(CO)n3nc21 [Example 1h/A, 1-Hydroxymethyl-2,3,4,10,10a-pentaaza-cyclopenta[b]fluoren-9-one] | 2050 | > 100000 | 4000 | –
